Key:
[1] = test system: Albino male CD-1 mice (scratching induced by Compound 48/80); assay: Scratching against Compound 48/80 in mice; type: in vivo; settings: for effect on Compound 48/80 scratching, in words: text summary of Tables 1 and 8
Procedure: (§1) Albino male CD-1 mice, 7-9 weeks old, were used. Testing was based on known methods (See Liebel et al., Arch Dermatol Res. 298:191-199, 2006.) Test agents were prepared at concentrations noted in Table 1 in 100% ethanol and 50 μL was applied topically to the shaved dorsal skin 30 minutes prior to induction of scratching (8 mice per treatment group). Compound 48/80 (50 μg/50 μL: w/v) was then injected inter-dermal to the dorsal area and scratches were then counted for 30 minutes.
as §1, with “prepared” for “prepared at concentrations noted in Table 1”, “uL” for “μL”, “ug/50 uL” for “μg/50 μL:”

[2] = test system: Albino male CD-1 mice (neurogenic inflammation induced by Resiniferatoxin); assay: Resiniferatoxin neurogenic inflammation model in the mouse ear (ear edema); type: in vivo; settings: for inhibition of the neurogenic inflammatory response to resiniferatoxin, in words: summary of Tables 2 to 4
From the text: Neurosensory inflammation, also referred to as neurogenic inflammation, is a type of inflammation triggered by sensory nerve activation in skin. Certain natural substances that act on vanilloid receptors cause sensory nerves (C-fibers) to release inflammatory neuropeptides. In mouse skin, an edema response occurs rapidly upon application of a vanilloid receptor activator, such as capsaicin or resiniferatoxin (RTX).
Albino male CD-1 mice, 7-9 weeks old, were used. […] A 20-μL volume of Resiniferatoxin (0.05%) prepared in acetone was applied to the left ears (7 mice per treatment group). The right ear was not treated. Test agents were prepared in a 70% ethanol/30% propylene glycol vehicle and applied to the left ear (20 μL) immediately after resiniferatoxin challenge. The percent inhibition was calculated by comparing treatments to resiniferatoxin alone. Anti-neurogenic inflammation effects of compounds are evident as an inhibition of the increase in ear weight.

[3] = Table 8, topical dose 1 % w/v in 100% ethanol, 50 uL, 30 minutes prior to Compound 48/80
[4] = Table 2, topical dose 0.5 % w/v in 70% ethanol/30% propylene glycol, 20 μL to ear immediately after resiniferatoxin

CC(N/C(=N\C#N)Nc1ccncc1)C(C)(C)C (stereo not drawn) [Pinacidil, reference compound]
% Inhibition of Scratching [1, 3]: 17.03%

CC(O)C(=O)[O-].[K+] (stereo not drawn) [Potassium Lactate]
% Inhibition of the Ear Edema ([2]; Table 2, topical dose 0.206 % w/v, 20 μL to ear immediately after resiniferatoxin): 13.52% | % Inhibition of the Ear Edema ([2]; Table 4, topical dose 0.206 % w/v): 13.52% | inhibition of the neurogenic inflammatory response to resiniferatoxin, in words [2]: failed to significantly inhibit | % Inhibition of Scratching ([1]; Table 1, topical dose 0.206 % w/v in 100% ethanol, 50 μL, 30 minutes prior to Compound 48/80): −8.84% | effect on Compound 48/80 scratching, in words [1]: very weak to no inhibition

O=C([O-])[O-].[K+].[K+] [Potassium Carbonate]
% Inhibition of the Ear Edema ([2]; Table 4, topical dose 0.283 % w/v): 4.52%

Nc1cc(N2CCCCC2)nc(N)[n+]1[O-] [Minoxidil, reference compound]
% Inhibition of Scratching [1, 3]: 8.42%

CC(=O)[O-].[K+] [Potassium Acetate]
% Inhibition of the Ear Edema ([2]; Table 4, topical dose 0.398 % w/v): −2.89%

[Cl-].[K+] [Potassium Chloride]
% Inhibition of the Ear Edema ([2]; Table 3, topical dose 0.524 % w/v): 9.98% | % Inhibition of the Ear Edema ([2]; Table 4, topical dose 0.524 % w/v): 9.98%

CC(C)NCCN(CCNC(C)C)CCNC(C)C [Tris[2-(isopropylamino)ethylamine]
% Inhibition of the Ear Edema [2, 4]: 13.62% | inhibition of the neurogenic inflammatory response to resiniferatoxin, in words [2]: failed to significantly inhibit

[Cl-].[Na+] [Sodium Chloride, reference compound]
% Inhibition of the Ear Edema ([2]; Table 3, topical dose 1 % w/v): 7.06%

CC(O)CN(CCN(CC(C)O)CC(C)O)CC(C)O (stereo not drawn) [Tetrahydroxypropyl ethylenediamine, N,N,N′,N′-Tetrakis(2-hydroxypropyl)ethylenediamine]
% Inhibition of the Ear Edema ([2]; Table 2, topical dose 1 % w/v, 20 μL to ear immediately after resiniferatoxin): 4.04% | inhibition of the neurogenic inflammatory response to resiniferatoxin, in words [2]: failed to significantly inhibit | % Inhibition of Scratching ([1]; Table 1, topical dose 1 % w/v in 100% ethanol, 50 μL on shaved dorsal skin 30 minutes prior to Compound 48/80, scratches counted for 30 minutes): 9.39% | % Inhibition of Scratching [1, 3]: 9.39% | effect on Compound 48/80 scratching, in words [1]: very weak to no inhibition

CCN(CC)CC(=O)Nc1c(C)cccc1C [Lidocaine, reference compound]
% Inhibition of the Ear Edema [2, 4]: 28.7%

[Ca+2].[Cl-].[Cl-] [Calcium Chloride, reference compound]
% Inhibition of the Ear Edema ([2]; Table 3, topical dose 1 % w/v): −3.24%

Source: patent publication US20090227683A1, “Compositions for Providing an Analgesic Effect to the Skin” (priority 2008, published 2009)
